Tests used:
HFDPC [1] = experiment: Assessment of cell morphology by phase contrast microscopy; type: cell-based, human; conditions: for cell adherence and proliferation (summary): confluence and cell shape after 3 weeks, diosgenin concentration-dependent
Experimental: (§1) First, Human Follicle Dermal Papilla Cells (HFDPC) cells were thawed and seeded into collagen-coated cell culture flasks (T25). Then the medium was changed every 48 h. After 4 days the cells were trypsinized and seeded in T75 cell culture flask. In preparation for the final experiment, the cells were trypsinized and then counted with a cell counter. The cell concentration was then adjusted in a defined amount of medium followed by seeding of the cells in 96-well plates for the subsequent cell impedance measurements (5000 cells per well) or in 24-well plates (20000 cells per well). Subsequently, the cells were cultivated for 7 days in pure culture medium with regular medium changes after 2-3 days. After 7 days, the medium with the additives listed in Table 1 was added (designated as day 0), followed by a 3-week cultivation of the cells. The medium (and addition of fresh active substances) was changed every 2-3 days. […] The following examinations were carried out after 7, 14 and 21 days. Cells in pure culture medium (C+M) were used as controls (untreated). All cell culture substrates were coated with collagen prior to cell seeding. The tests with HFDPC were run without the use of preservatives.
Cell morphology was assessed through microscopic examination of the cells with an inverted microscope (phase contrast microscopy) at 10x and 20x primary magnification. The morphology of the cells provides information on the adherence behaviour of the cells,possible cell activation and cell stress. This examination was carried out on a 24-well scale.

HFDPC [2] = experiment: Cell impedance test (xCELLigence, cell index) on proliferation and toxicity; type: cell-based
HFDPC [3] = experiment: Immunofluorescent staining of vimentin; type: cell-based, human; conditions: 2. Concentration (2c)
HFDPC [4] = experiment: Cell count after trypsination; type: cell-based, human; conditions: for influence on the cell count (summary): over 3 weeks
Experimental: as §1
This investigation was performed on a 24-well scale.
To perform this investigation 5000 cells per well were seeded in the 96-wells with the addition of a maximum of 200 µl medium. The cells were grown for 7 days in pure cell culture medium. The medium was changed every 2-3 days, whereby 100 µl of old medium was removed and replaced by 100 µl of new medium. After 7 days the "pure" cell culture medium was completely removed and medium with the respective additives was added. The cells were then cultivated for 3 weeks with regular replacement of the medium with the respective additives. Cell counting after trypsinizing: The exact cell count of HFDPC was determined after trypsination of the cells in the respective well and uptake of the resulting cell pellets in medium. All pellets of one sample were combined in a cell culture vessel and then counted with a cell counter.

VEGF = experiment: VEGF-ELISA in cell culture supernatant; type: cell-based, human
Text: If the cell membrane is damaged, the lactadehydrogenase (LDH) present inside the cell is released into the cell culture supernatant. The resulting NADH/H+ reduces the tetrazolium salt present in the reaction mixture to formazan. This becomes visible by a colour change, which can be detected at an absorption of 450 nm (y-axis: OD 450 nm) in the microplate reader. The higher the intensity of the colour change, the greater the degree of membrane damage. A low OD 450 nm value is desired. Four diagrams are presented: The LDH level after one week (LDH 1st Week of Trial), two weeks (LDH 2nd Week of Trial) and three weeks (LDH 3rd Week of Trial) after the HFDPC cells were exposed to the control conditions or to the actives substances. The control conditions are HFDPC with medium (blue, C+M). Active substances are arachidonate with low concentration (purple, Ara 1.c), arachidonate with high concentration (orange, Ara 2.c), diosgenin with low concentration (black, Dios 1.c), diosgenin with high concentration (brown, […]), ricinoleic acid with low concentration (dark blue, Rici 1.c), ricinoleic acid with high concentration (dark violet, Rici 2.c), inventive example with low concentration (red, IE 1.c) inventive example with high concentration (green, IE 2.c). The fourth diagram presents a background control, in which the LDH level was measured by OD 450 nm values (y-axis) from the cell culture supernatant for the medium (blue, M) as a control test and for the medium with the active substance in high concentrations (green, M+Ara 2.c; purple, M+Dios 2.c; orange, M+Rici 2.c; black, M+IE 2.c) after one, two and three weeks (x-axis). • FIG 2: Phase contrast images of untreated HFDPC (HFDPC in medium) 1 week after cell cultivation a) 10x magnification, b) 20x magnification • FIG 3: Phase contrast images of treated HFDPC in 20x magnification, one week after addition of the active ingredient a) Ara 1.c, b) Ara 2.c, c) Rici 1.c, d) Rici 2.c, e) Dios 1.c, f) Dios 2.c, g) IE 1.c, h) IE 2.c • FIG 4: Phase contrast images of untreated and treated HFDPC in 20x magnification, two weeks after addition of the active ingredient a) Medium b) Ara 1.c, c) Ara 2.c, d) Rici 1.c, e) Rici 3.c, f) Dios 1.c, g) Dios 2.c, h) IE 1.c, i) IE 2.c • FIG 5: Phase contrast images of untreated and treated HFDPC in 20x magnification, three weeks after addition of the active ingredient a) Medium b) Ara 1.c, c) Ara 2.c, d) Rici 1.c, e) Rici 3.c, f) Dios 1.c, g) Dios 2.c, h) IE 1.c, i) IE 2.c • FIG 6: Alkaline Phosphatase Alkaline phosphatase (AP) is an enzyme that catalyses the hydrolysis of a large number of phosphate esters. The enzyme is formed by the HFDPCs during the hair cycle. Thus, the detection of AP is the proof of hair growth. […]

[5] = 2 weeks after addition, versus untreated cells
[6] = 1. Concentration (1c), after 3 weeks
[7] = 1 week after addition, versus untreated cells
[8] = depending on concentration and time, compared to untreated cells
[9] = 250 µg/mL in medium, first 24 hours after addition

CCCCC/C=C\C/C=C\C/C=C\C/C=C\CCCC(=O)[O-].[Na+] [Ara, Sodium Arachidonate]
cell density (HFDPC [1]; 2 weeks after addition, higher concentration): higher cell density
cell morphology / confluence (HFDPC [1]; [5]): almost the same morphology
cell index (HFDPC [2]; 50 µg/mL in medium): increase the cell index
toxic effect on the cells (HFDPC [2]; 50 µg/mL in medium): does not have a toxic effect
toxic effect on the cells (HFDPC [2]; 100µg/mL in medium): has a toxic effect
cell spreading and attachment to the cell culture substrate (HFDPC [3]): able to clearly spread and attach to the cell culture substrate
cell count (HFDPC [4]; after 3 weeks, higher concentration, compared to untreated cells): increase in HFDPC
cell count (HFDPC [4]; entire duration of the experiment, independent of time and concentration): did not negatively affect the cell count
cell count (HFDPC [4]; over 2 weeks): remained constant
VEGF release (VEGF; [6]): lower VEGF release

C[C@@H]1CC[C@@]2(OC1)O[C@H]1C[C@H]3[C@@H]4CC=C5C[C@@H](O)CC[C@]5(C)[C@H]4CC[C@]3(C)[C@H]1[C@@H]2C [Dios, Diosgenin]
cell morphology / confluence (HFDPC [1]; [7]): greater confluence
cell morphology / confluence (HFDPC [1]; [5]): very high confluence in the well and elongated, typical growth
cell morphology / confluence (HFDPC [1]; 3 weeks after addition, lower concentration): resembled untreated cells
cell adherence and proliferation (summary) (HFDPC [1]): very beneficial
toxicity in the cellular impedance test (HFDPC [2]; measured maximum concentration of 500 µg/mL): not toxic
cell spreading and attachment to the cell culture substrate (HFDPC [3]): able to clearly spread and attach to the cell culture substrate
number of HDFPC (HFDPC [4]; 1c, over time): remained constant after addition of Diosgenin 1c, but was increased compared to untreated cells
cell number (HFDPC [4]; 2c, over time, compared to untreated and Diosgenin 1c treated cells): significant increase in cell number
cell count (HFDPC [4]; [8]): positive influence on the cell number
influence on the cell count (summary) (HFDPC [4]): positive influence on the cell count
VEGF release (VEGF; 1. Concentration (1c), after 1 week): lower VEGF release
VEGF release (VEGF; [6]): lower VEGF release

CCCCCC[C@@H](O)C/C=C\CCCCCCCC(=O)O [Rici, 12-hydroxy-9-cis-octadecenoic acid]
cell morphology / confluence (HFDPC [1]; [7]): greater confluence
cell morphology / confluence (HFDPC [1]; [5]): very high confluence in the well and elongated, typical growth
cell morphology / confluence (HFDPC [1]; 3 weeks after addition, both concentrations): confluent, very dense monolayer and an elongated cell shape
cell adherence and proliferation (summary) (HFDPC [1]): very beneficial
cell index (HFDPC [2]; 100µg/mL, after 24 h and 48 h addition): remained constant
cell index (HFDPC [2]; [9]): positive influence on the cell index
toxic effect on the cells (HFDPC [2]; [9]): does not appear to have a toxic effect
cell index (HFDPC [2]; 250 µg/mL, after 48h of repeated addition): decreases
cell count (HFDPC [4]; after 1 week, compared to untreated cells): difference was visible
cell count (HFDPC [4]; [8]): significant increase in cell count
influence on the cell count (summary) (HFDPC [4]): positive influence on the cell count
VEGF release (VEGF; 2. Concentration (2.c), after 3 weeks): lower VEGF release

Source: patent EP3895685A1, “NATURAL COMPOSITION FOR HAIR GROWTH STIMULATION AND HAIR LOSS PREVENTION AND TREATMENT WITHOUT PRESERVATIVES” (Fraunhofer-Gesellschaft zur Förderung der angewandten …, priority 2020, dated 2021)
